According to patent US11851391B2, “Antifungal compounds and methods of forming the same” (University of Kentucky Research Foundation, priority 2018, dated 2023):
In brackets after ≈: the same amount, converted by molar mass. Read-outs that look alike come from different tables or passages of the source.

Legend:
[1] = tested on: murine red blood cells (mRBCs); conditions: for Percentage of hemolysis (±SDEV): mouse, 60 min
How it was run: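 mRBCs washed four times in PBS, resuspended at 10^7 mRBC/mL, exposed to test bishydrazones at 37° C for 60 min. ddH2O as blank, 1% v/v Triton X-100 as positive control; % hemolysis = (sample − blank absorbance)×100/positive-control absorbance.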

[2] = tested on: Candida krusei ATCC 6258 (strain I); test: MIC determination, in vitro antifungal assay (CLSI M27-A3); format: cell-based; conditions: MIC-0, 48 h at 35° C.
How it was run: (§1)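 A single colony was grown overnight in YPD broth at 35° C with shaking, set to OD600 0.12 in water, and diluted to 2-4×10^3 CFU/mL in MOPS-buffered RPMI 1640 (pH 7.0). MICs were then determined by the CLSI M27-A3 method at 35° C, keeping DMSO under 1.25%.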

[3] = tested on: Candida glabrata ATCC 2001 (strain H); test: as above; format: cell-based; conditions: MIC-0, 48 h at 35° C.
How it was run: as §1

[4] = tested on: human lung carcinoma cell line A549; test: In vitro cytotoxicity assay (resazurin); format: cell-based; conditions: 24 h
Procedure: The human bronchus normal cell line BEAS-2B (ATCC CRL-9609) and the human lung carcinoma cell line A549 (ATCC CRL-185) were kind gifts from the laboratories of Dr. Matthew S. Gentry (University of Kentucky, Lexington, KY, USA) and Dr. David K. Orren (University of Kentucky, Lexington, KY, USA). The mammalian cells were grown in Dulbecco's Modified Eagle's Medium (DMEM) (from ATCC) with 10% fetal bovine serum (FBS) (from ATCC) and 1% Pen/Strep (from ATCC). Cell lines were cultured at 37° C. with 5% CO2 and passaged by trypsinization with 0.05% trypsin:0.53 mM EDTA (from ATCC). Cell confluency was determined by using a Nikon Eclipse TS100 microscope (Minato, Tokyo, Japan).
Cytotoxicity assays were performed as previously described with slight modifications. A549 and BEAS-2B cells were first thawed from stocks and grown. The confluent cells were transferred to a 96-well microtiter plates at density of 3000 cells/well. The 96-well plates were incubated at 37° C. with 5% CO2 overnight. […] The stock solutions were serially diluted in 1.5 mL eppendorf tubes to achieve concentrations of 31-0.12 mg/mL. 1 μL of these 1000× compound stock solutions was then added to 999 μL of DMEM medium in 1.5 mL eppendorf tubes to obtain final concentrations of 31-0.12 μg/mL. […] The 96-well plates were further incubated for 24 h at 37° C. with 5% CO2. To evaluate cell survival, each well was treated with 10 μL (25 mg/L) of resazurin sodium salt (Sigma-Aldrich, St. Louis, MO, USA) and incubated for another 6 h. Metabolically active cells can convert resazurin to the highly fluorescent dye, resorufin, and be detected at A560 excitation and A590 emission using a SpectraMax M5 plate reader (Molecular Devices, San Jose, CA, USA). […] The percentage survival rates were calculated by using the following formula: % cell survival=[(fluorescence of sample)−(fluorescence of background)]×100/[(fluorescence of negative control)−(fluorescence of background)]. Experiments were done in duplicate.

[5] = Pichia kudriavzevii, ATCC6258, 48 h, read-out: MIC
[6] = Nakaseomyces glabratus, ATCC2001, 48 h, read-out: MIC
[7] = A549 (printed A459) at 31 μg/mL

`C(=N\Nc1ccccc1)/c1ccc(-c2cccc(/C=N/Nc3ccccc3)c2)cc1` [Compound 7a] was tested, and the “hemolytic activity (in words)” value [1] was “lack of hemolytic activity”, the “Percentage of hemolysis (±SDEV)” value ([1]; 0.975 μg/mL) was 0% and the “Percentage of hemolysis (±SDEV)” value ([1]; 1.95 μg/mL) was 3.5 ± 3.3%. The “Percentage of hemolysis (±SDEV)” value ([1]; 3.9 μg/mL) was 1.5 ± 0.9%, the “Percentage of hemolysis (±SDEV)” value ([1]; 7.8 μg/mL) was 8.5 ± 5.1% and the “Percentage of hemolysis (±SDEV)” value ([1]; 15.6 μg/mL) was 14.1 ± 0.1%. For the same compound, the “Percentage of hemolysis (±SDEV)” value ([1]; 31.3 μg/mL) was 16.7 ± 0.9%, the MIC [2] was 7.8 µg/mL (≈ 20 µM) and the MIC [2, 5] was 7.8 to 15.6 µg/mL (≈ 20 to 39.9 µM). It also gave an MIC [3, 6] of over 31.3 µg/mL.
In the case of `Fc1ccc(N/N=C/c2ccc(-c3cccc(/C=N/Nc4ccc(F)cc4)c3)cc2)cc1` [Compound 17a], the “Percentage of hemolysis (±SDEV)” value ([1]; 0.975 μg/mL) is reported as 0%, the “Percentage of hemolysis (±SDEV)” value ([1]; 1.95 μg/mL) is reported as 6.0 ± 2.1% and the “Percentage of hemolysis (±SDEV)” value ([1]; 3.9 μg/mL) is reported as 4.3 ± 1.6%. For the same compound, the “Percentage of hemolysis (±SDEV)” value ([1]; 7.8 μg/mL) was 9.5 ± 3.3%, the “Percentage of hemolysis (±SDEV)” value ([1]; 15.6 μg/mL) was 9.9 ± 2.1% and the “Percentage of hemolysis (±SDEV)” value ([1]; 31.3 μg/mL) was 14.4 ± 0.9%. For the same compound, the “Percentage of hemolysis (±SDEV)” value ([1]; 62.5 μg/mL) was 26.1 ± 11.1%, the “toxicity (in words)” value [4, 7] was “generally non-toxic” and the MIC [2, 5] was over 31.3 µg/mL. For the same compound, the MIC [3, 6] was over 31.3 µg/mL.
For `Fc1ccc(N/N=C/c2ccc(-c3cccc(/C=N/Nc4ccc(F)cc4F)c3)cc2)c(F)c1` [Compound 20a], the “hemolytic activity (in words)” value [1] was “lack of hemolytic activity”, the “Percentage of hemolysis (±SDEV)” value ([1]; 0.975 μg/mL) was 0% and the “Percentage of hemolysis (±SDEV)” value ([1]; 1.95 μg/mL) was 4.5 ± 2.3%. For the same compound, the “Percentage of hemolysis (±SDEV)” value ([1]; 3.9 μg/mL) was 4.2 ± 2.8%, the “Percentage of hemolysis (±SDEV)” value ([1]; 7.8 μg/mL) was 8.6 ± 1.6% and the “Percentage of hemolysis (±SDEV)” value ([1]; 15.6 μg/mL) was 14.6 ± 1.6%. For the same compound, the “Percentage of hemolysis (±SDEV)” value ([1]; 31.3 μg/mL) was 14.6 ± 0.7%, the “toxicity (in words)” value ([4]; A549 at 15.5 μg/mL) was “no toxicity” and the MIC [2] was 1.95 µg/mL (≈ 4.22 µM). For the same compound, the MIC [2, 5] was 1.95 to 3.9 µg/mL (≈ 4.22 to 8.43 µM) and the MIC [3, 6] was 15.6 µg/mL (≈ 33.7 µM).
With `COc1ccc(N/N=C/c2ccc(-c3ccc(/C=N/Nc4ccc(OC)cc4)cc3)cc2)cc1` [Compound 15b] the “hemolytic activity (in words)” value [1] was “lack of hemolytic activity”, the “Percentage of hemolysis (±SDEV)” value ([1]; 0.975 μg/mL) was 1.6 ± 2.3% and the “Percentage of hemolysis (±SDEV)” value ([1]; 1.95 μg/mL) was 1.9 ± 0.3%. The “Percentage of hemolysis (±SDEV)” value ([1]; 3.9 μg/mL) was 2.8 ± 0.6%, the “Percentage of hemolysis (±SDEV)” value ([1]; 7.8 μg/mL) was 4.2 ± 3.1% and the “Percentage of hemolysis (±SDEV)” value ([1]; 15.6 μg/mL) was 6.7 ± 2.0%. The “Percentage of hemolysis (±SDEV)” value ([1]; 31.3 μg/mL) was 12.6 ± 4.7%, the “toxicity (in words)” value [4, 7] was “generally non-toxic” and the MIC [2] was 7.8 µg/mL (≈ 17.3 µM). It also gave an MIC [2, 5] of 7.8 to 15.6 µg/mL (≈ 17.3 to 34.6 µM), an MIC [3] of 7.8 µg/mL (≈ 17.3 µM) and an MIC [3, 6] of 7.8 to 15.6 µg/mL (≈ 17.3 to 34.6 µM).
In the case of `COc1ccc(N/N=C/c2ccc(-c3cccc(/C=N/Nc4ccc(OC)cc4)c3)cc2)cc1` [Compound 15a], the “hemolytic activity (in words)” value [1] is reported as “lack of hemolytic activity”, the “Percentage of hemolysis (±SDEV)” value ([1]; 0.975 μg/mL) is reported as 2.6 ± 3.4% and the “Percentage of hemolysis (±SDEV)” value ([1]; 1.95 μg/mL) is reported as 4.5 ± 1.7%. For the same compound, the “Percentage of hemolysis (±SDEV)” value ([1]; 3.9 μg/mL) was 3.0 ± 1.6%, the “Percentage of hemolysis (±SDEV)” value ([1]; 7.8 μg/mL) was 2.6 ± 2.8% and the “Percentage of hemolysis (±SDEV)” value ([1]; 15.6 μg/mL) was 7.8 ± 3.3%. For the same compound, the “Percentage of hemolysis (±SDEV)” value ([1]; 31.3 μg/mL) was 9.6 ± 1.7%, the “toxicity (in words)” value [4, 7] was “generally non-toxic” and the MIC [2] was 3.9 µg/mL (≈ 8.66 µM). The MIC [2, 5] was 1.95 to 3.9 µg/mL (≈ 4.33 to 8.66 µM).
For `Fc1cccc(N/N=C/c2ccc(-c3cccc(/C=N/Nc4cccc(F)c4)c3)cc2)c1` [Compound 12a], the “hemolytic activity (in words)” value [1] was “lack of hemolytic activity”, the “Percentage of hemolysis (±SDEV)” value ([1]; 0.975 μg/mL) was 4.6 ± 2.5% and the “Percentage of hemolysis (±SDEV)” value ([1]; 1.95 μg/mL) was 0.6 ± 0.6%. The “Percentage of hemolysis (±SDEV)” value ([1]; 3.9 μg/mL) was 2.5 ± 2.7%, the “Percentage of hemolysis (±SDEV)” value ([1]; 7.8 μg/mL) was 7.9 ± 0.1% and the “Percentage of hemolysis (±SDEV)” value ([1]; 31.3 μg/mL) was 32.6 ± 9.6%. For the same compound, the “Percentage of hemolysis (±SDEV)” value ([1]; 62.5 μg/mL) was 39.5 ± 12.1%, the “toxicity (in words)” value ([4]; A549 at 15.5 μg/mL) was “no toxicity” and the MIC [2] was 1.95 µg/mL (≈ 4.57 µM). For the same compound, the MIC [2, 5] was 1.95 to 3.9 µg/mL (≈ 4.57 to 9.14 µM) and the MIC [3, 6] was over 31.3 µg/mL.
With `C/C(=N\Nc1ccc(F)cc1)c1ccc(-c2ccc(/C(C)=N/Nc3ccc(F)cc3)cc2)cc1` [Compound 17c, 4,4′-bis((E)-1-(2-(4-fluorophenyl)hydrazono)ethyl)-1,1′-biphenyl] the “Percentage of hemolysis (±SDEV)” value ([1]; 0.975 μg/mL) was 1.4 ± 1.1%, the “Percentage of hemolysis (±SDEV)” value ([1]; 1.95 μg/mL) was 2.6 ± 0.9% and the “Percentage of hemolysis (±SDEV)” value ([1]; 3.9 μg/mL) was 2.6 ± 2.7%. For the same compound, the “Percentage of hemolysis (±SDEV)” value ([1]; 7.8 μg/mL) was 5.9 ± 0.3%, the “Percentage of hemolysis (±SDEV)” value ([1]; 15.6 μg/mL) was 7.4 ± 1.1% and the “Percentage of hemolysis (±SDEV)” value ([1]; 31.3 μg/mL) was 9.5 ± 2.2%. For the same compound, the “Percentage of hemolysis (±SDEV)” value ([1]; 62.5 μg/mL) was 26.2 ± 7.7%, the “toxicity (in words)” value ([4]; A549 at 15.5 μg/mL) was “no toxicity” and the MIC [2] was 1.95 µg/mL (≈ 4.29 µM). It also gave an MIC [2, 5] of 1.95 to 3.9 µg/mL (≈ 4.29 to 8.58 µM) and an MIC [3, 6] of 15.6 µg/mL (≈ 34.3 µM).
With `Fc1ccc(N/N=C/c2ccc(-c3ccc(/C=N/Nc4ccc(F)cc4)cc3)cc2)cc1` [Compound 17b] the “Percentage of hemolysis (±SDEV)” value ([1]; 0.975 μg/mL) was 0%, the “Percentage of hemolysis (±SDEV)” value ([1]; 1.95 μg/mL) was 1.1 ± 1.5% and the “Percentage of hemolysis (±SDEV)” value ([1]; 3.9 μg/mL) was 0.7 ± 1.1%. For the same compound, the “Percentage of hemolysis (±SDEV)” value ([1]; 7.8 μg/mL) was 3.2 ± 3.0%, the “Percentage of hemolysis (±SDEV)” value ([1]; 15.6 μg/mL) was 9.0 ± 8.5% and the “Percentage of hemolysis (±SDEV)” value ([1]; 31.3 μg/mL) was 9.6 ± 6.7%. The “Percentage of hemolysis (±SDEV)” value ([1]; 62.5 μg/mL) was 28.3 ± 4.1%, the MIC [2] was 1.95 µg/mL (≈ 4.57 µM) and the MIC [2, 5] was 1.95 µg/mL (≈ 4.57 µM). The MIC [3] was 15.6 µg/mL (≈ 36.6 µM) and the MIC [3, 6] was 7.8 to 15.6 µg/mL (≈ 18.3 to 36.6 µM).
